Source: patent publication EP4631490A1, “ACTIVATOR AND SKIN CONDITION IMPROVING AGENT” (Nippon Shokubai Co., Ltd., priority 2022, dated 2024)
Blank lines part the entries; values can stand above or below the molecule they belong to.

Tests used:
[1] = Measurement of critical micelle concentration (surface tension, platinum suspension plate method); type: physicochemical; conditions: critical micelle concentration from surface tension measurement
Method: A highly functional surface tensiometer (DY-500 (available from Kyowa Interface Science Co., Ltd.) was used to perform surface tension measurement by a platinum suspension plate method, and critical micelle concentrations (CMCs) of the STL C14, the STL C16, the STL C18, sodium lauryl sulfate, sodium deoxycholate, and sodium caprylate were calculated in accordance with a common method. The results are described in Table 4.

[2] = Foam property evaluation (dynamic foam analyzer); type: physicochemical; conditions: 0.5% aqueous solution, pH 8.0, water hardness 20°dH, 25°C; for Creaminess of foam Bubble area after 20 seconds: 20 seconds after stirring was stopped; for Creaminess of foam Bubble area after 600 seconds: 600 seconds after stirring was stopped; for Foam retention evaluation Foam change rate: smaller = better foam retention
Method: Thereafter, an average bubble area of foams was determined based on the images, and creaminess (foamability) of the foams was evaluated according to the following criteria. Note that the creaminess of the foams is characterized by having a small final bubble diameter (measured as average bubble area). The foams generated from the aqueous solutions containing the STL C14, the STL C16, or the STL C18 had small bubble areas, and thus it was considered that creamy foams could be formed. • ⊚ (good): The bubble area was 20000 µm^2 or less. • ∘ (passed): The bubble area was 20001 µm^2 or more and 30000 µm^2 or less. • Δ (slightly poor): The bubble area was 30001 µm^2 or more and 40000 µm^2 or less. • × (poor): The bubble area was 40001 µm^2 or more. A foam change rate was calculated using the following equation. It can be determined that the smaller the foam change rate is, the better the foam retention is, in other words, the better the foaming durability is. […]

[3] = test system: L929 mouse fibroblasts; conditions: values of L. Vian et al., Toxicol in vitro, 9(2), 185-190, 1995; cited from earlier work
[4] = test system: Zein powder; experiment: Protein denaturation test (dissolution of Zein powder); conditions: 0.5% aqueous solution, pH 8.0; 0.03 g Zein powder in 10 mL; room temperature, 2 hours; index of skin irritation
Method: 0.03 g of Zein powder (FUJIFILM Wako Pure Chemical Corporation) was added to the aqueous solutions of the STL. After stirring at room temperature and 1200 rpm for 2 hours, the Zein powder-added solutions were transferred to centrifuge tubes, respectively, and centrifuged at 6200 rpm for 10 seconds to precipitate and remove undissolved zein powder. The protein concentrations in the solutions were measured using a microvolume spectrophotometer NanoDrop (NanoDrop Technologies).
The protein denaturation test was performed in the same manner using sodium lauryl sulfate, sodium deoxycholate, and sodium caprylate.

Molecule: CCCCCCCCCCCCOS(=O)(=O)[O-].[Na+] [Sodium lauryl sulfate, sodium lauryl sulfate]
Surface activating ability evaluation CMC [1]: 8 mM | Creaminess of foam Bubble area after 20 seconds [2]: ⊚ (⊚ (good): The bubble area was 20000 µm^2 or less.) | Creaminess of foam Bubble area after 600 seconds [2]: Δ (Δ (slightly poor): The bubble area was 30001 µm^2 or more and 40000 µm^2 or less.) | Foam retention evaluation Foam change rate [2]: 2.81% | Cytotoxicity evaluation IC50 [3]: 86 ppm

Molecule: sodium deoxycholate
Surface activating ability evaluation CMC [1]: 6 mM | Creaminess of foam Bubble area after 20 seconds [2]: ⊚ (⊚ (good): The bubble area was 20000 µm^2 or less.) | Creaminess of foam Bubble area after 600 seconds [2]: × (× (poor): The bubble area was 40001 µm^2 or more.) | Foam retention evaluation Foam change rate [2]: 2.62% | Cytotoxicity evaluation IC50 [3]: 90 ppm | Protein denaturation ability evaluation Protein dissolution concentration [4]: 430 µg/mL

Surface activating ability evaluation CMC [1]: 300 mM | Creaminess of foam Bubble area after 20 seconds [2]: ○ | Foam retention evaluation Foam change rate [2]: 1.09%
Molecule: CCCCCCCC(=O)[O-].[Na+] [Sodium caprylate, sodium caprylate]
Creaminess of foam Bubble area after 600 seconds [2]: Δ (Δ (slightly poor): The bubble area was 30001 µm^2 or more and 40000 µm^2 or less.) | Cytotoxicity evaluation IC50 [3]: 887 ppm
